This is an account of results in PubChem BioAssay (NCI).

Structures are written as SMILES. Several values for one entry are separate records, joined by “and”; a condition that tells them apart may be missing. Identical values can stand only once.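 1) Cells in 96-well plates. 2) Compound, 48 h, 5 concentrations. 3) Linear interpolation between surrounding doses. 4) Unreached endpoint = highest concentration. GI50: concentration for 50% inhibition of growth. TGI: total growth inhibition.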

Common to all, as to experiment: NCI-60 cell line screen, 48 h
Assay [1] deals with HS 578T breast.
For assay [2], the system named is NCI-H226 lung.
In assay [3] the test system is COLO 205 colon.
The test system of assay [4] is K-562 leukemia.
For assay [5], the system named is SF-295 CNS.
For assay [6], the system named is OVCAR-4 ovarian.
Assay [7] deals with UACC-62 melanoma.
Assay [8] has as its system LOX IMVI melanoma.
Assay [9] relates to HOP-92 NSCLC.
The test system of assay [10] is HCC-2998 colon.

Turning to `N#CCOc1cccc(C2(N3CC=CCC3)CCCCC2)c1`, the TGI in assay [1], in assay [2], in assay [3], in assay [4], in assay [5] and in [6] was above 100 µM throughout. Moreover, the TGI in assay [7] and in assay [8] was above 100 µM in each case.
Consider `CCOC(=O)c1nc2cc(C(F)(F)F)ccc2nc1Nc1ccc(F)cc1`, for which the TGI in assay [2] was above 100 µM; in assay [3], above 100 µM; in [4] it was 39.9 µM; in assay [5], above 100 µM; in assay [6], 86.1 µM; in assay [9], 49.6 µM. Further, the TGI in assay [10], in assay [7] and in assay [8] was above 100 µM throughout.
`Nc1nn(CC(O)CO)c(=O)s1` (stereo unspecified): the TGI in assay [2], in assay [3], in assay [4], in assay [5], in assay [6] and in [10] was above 100 µM in each case. The TGI in [7] and in assay [8] was above 100 µM each time.
Turning to `CC1(C)OCC(COC(=O)NCn2cc(-c3ccccc3)nn2)O1` (stereo unspecified), the TGI in assay [2], in assay [3], in assay [4], in assay [5], in [6] and in assay [9] was above 100 µM throughout. Also, the TGI in [10] and in assay [8] was above 100 µM in each case.
Consider `C=CC[N+](CCO)(CCO)CCCCCCCCCCCCCCCCCC`, for which the TGI was 28.7 µM in assay [2]; 11 µM in assay [3]; 18.2 µM in assay [4]; 21.5 µM in [5]; 16.4 µM in assay [6]; 3.91 µM in [9]. For the same molecule, the values for the TGI in [10], in assay [7] and in [8] were 10.6 µM, 20.2 µM and 12.6 µM, respectively.
As to `N#Cc1ccc(Nc2cnc3ccc(N)cc3n2)cc1`, the TGI in [2], in assay [3], in assay [4], in assay [5], in assay [6] and in assay [9] was above 100 µM throughout. For the same molecule, the TGI in [10], in [7] and in assay [8] was above 100 µM each time.
For the molecule `COc1c(-c2cccs2)oc2c(CC(=O)O)cccc2c1=O`, the TGI in assay [3], in assay [4], in assay [5], in assay [10] and in [7] was above 100 µM each time.
With `C[C@H](N)C(=O)N[C@@H]1[C@H]2C(=C(O)C[C@@H](O)[C@@H]2O)C(=O)O[C@@H]1C`, the TGI in assay [2], in assay [3], in assay [4], in [5], in [6] and in assay [9] was above 100 µM throughout. The TGI in assay [10], in assay [7] and in assay [8] was above 100 µM throughout.
With `COc1ccc2c(c1)CC1(O)COc3cc(OC)ccc3C1O2` (stereo unspecified), the TGI in assay [2], in assay [3], in assay [5], in [6], in assay [9] and in assay [10] was above 100 µM each time. In addition, the TGI in [7] and in assay [8] was above 100 µM each time.
Turning to `Cc1cc(C)c2c(=N)c3ccccc3n(CCCCCCn3c4ccccc4c(=N)c4c(C)cc(C)nc43)c2n1`, the TGI was 2.85 µM in assay [2]; above 100 µM in assay [4]; 2.85 µM in assay [5]; 3.01 µM in assay [6]; 2.94 µM in assay [9]; 0.323 µM in [10]. In addition, the TGI in assay [7] is 3.26 µM.
For `CCOC(=O)C1=CC(C)(C(=O)OCC)Nc2c(nc(SC)n(C)c2=O)N1` (stereo unspecified), the TGI in assay [2], in [3], in assay [4], in [5], in assay [6] and in assay [9] was above 10 µM throughout. Also, the TGI in [10] and in assay [8] was above 10 µM each time.
For the molecule `O=C1C2=C(CCCCC2)C2CCCCC12O` (stereo unspecified), the TGI in [2], in [3], in assay [4], in [5], in [9] and in assay [10] was above 100 µM throughout. Besides, the TGI in assay [7] and in [8] was above 100 µM each time.
`COc1cc(/C=c2/c3ccccc3n3c2cc(-c2ccccc2)[n+]3C)cc(OC)c1OC`: the TGI was found to be 32.8 µM in [2]; 3.22 µM in assay [3]; 15.4 µM in assay [4]; 19.2 µM in assay [5]; 8.61 µM in assay [6]; 12.3 µM in [9]. In addition, the TGI came to 19 µM in assay [10], 10.5 µM in assay [7] and 12.6 µM in assay [8].
`Cc1nc2c(Cl)cc(Cl)cc2c(Cl)c1CCCl`: the TGI in assay [1], in [2], in [3], in assay [4], in assay [5] and in assay [10] was above 100 µM throughout. For the same molecule, the TGI in [7] and in [8] was above 100 µM each time.
As for `CC1CC(=O)Nc2ccc(N=NN(C)C)cc2N1C=O` (stereo unspecified), the TGI in assay [1], in assay [2], in assay [3], in assay [4], in [5] and in [6] was above 100 µM each time. Besides, the TGI in [10] and in [7] was above 100 µM in each case.
In the case of `C[C@H](CN1CC(=O)NC(=O)C1)N1CC(=O)NC(=O)C1`, the TGI in assay [2] was above 100 µM; in assay [3], above 72.8 µM; in assay [4], above 100 µM; in assay [5], above 100 µM; in assay [6], above 100 µM; in assay [9] it was above 100 µM. Also, the TGI in assay [10], in [7] and in assay [8] was above 100 µM each time.
Turning to `Cc1ccc(C(=O)C2=CN=C3C(=O)N(c4ccccc4)N(C)C3(C)C2=N)cc1` (stereo unspecified), the TGI in assay [2], in assay [3], in assay [4], in assay [5], in assay [6] and in [9] was above 100 µM each time. Also, the TGI in [10], in assay [7] and in assay [8] was above 100 µM each time.
For `COC12OC3CC4(C)C(=CC3OC(OC(C)C1O)C2O)CCC1C4CCC2(C)C(c3ccc(=O)oc3)CCC12O` (stereo unspecified), the TGI in assay [2] was 0.00676 µM; in [4], 0.00718 µM; in assay [5], 0.447 µM; in assay [6] it was 0.00199 µM; in assay [9], 0.0347 µM; in [10], 0.00945 µM. Besides, the TGI in assay [7] is 0.00472 µM; in [8] it was 0.00281 µM.
As for `CNc1ncnc2c1nnn2C`, the TGI in assay [2], in assay [3], in assay [4], in assay [5], in [6] and in assay [9] was above 100 µM in each case. The TGI in assay [10], in assay [7] and in assay [8] was above 100 µM in each case.
For `Clc1ccc2nc(CC3CCCC3)[nH]c2c1`, the TGI in assay [2] is 38.4 µM; in [3], 27.9 µM; in [4] it was 22.1 µM; in assay [5], 34.7 µM; in [6] it was 45.8 µM; in [9], 34 µM. Besides, the TGI in assay [10] is 41.8 µM; in assay [7], 33.4 µM; in assay [8] it was 29.9 µM.
As for `CN1CCN(/C(N)=C(\C#N)C(=O)Nc2ccccc2)CC1`, the TGI in [2], in [3], in assay [4], in assay [5], in assay [9] and in [10] was above 100 µM each time. For the same molecule, the TGI in assay [7] and in assay [8] was above 100 µM throughout.
Turning to `C=C1C(=O)O[C@@H]2OC3(C)CCC4C(C)CCC1C42OO3` (stereo partly specified), the TGI in [2] is 27.2 µM and 24.2 µM; in assay [3], 12.4 µM and 10.8 µM; in assay [4], 6.76 µM and 18.1 µM; in assay [5], 25.1 µM and 13.4 µM; in assay [6] it was 32.4 µM and 26 µM; in [9] it was 6.5 µM and 4.48 µM. Moreover, the TGI is 25.9 µM in assay [10]; 6.86 µM and 5.17 µM in assay [7]; 12.9 µM and 8.11 µM in [8]. Further, the GI50 was 3.99 µM in assay [3]; 2.32 µM in assay [4]; 11.7 µM in assay [5]; 2.54 µM in assay [9]; 3.55 µM in assay [8].
As for `O=C1OC(c2ccc(Cl)cc2)(c2ccc(Cl)cc2)c2c1ccc1ccccc21`, the TGI in assay [2], in assay [3], in [4], in assay [5], in assay [6] and in [10] was above 100 µM throughout. Also, the TGI in assay [7] and in assay [8] was above 100 µM in each case.
For `N/C(=N\N=C\c1cc2c(cc1Cl)OCO2)NO`, the TGI in assay [2] was above 93.7 µM; in [3], above 100 µM; in [4], above 100 µM; in assay [5] it was 74.8 µM; in assay [6], above 100 µM; in [9], above 95.1 µM. For the same molecule, the TGI in [10] was 97.8 µM; in [7] it was above 84.1 µM; in [8] it was above 100 µM.
Consider `CCCCNC(=S)c1ccc(OC(=O)Nc2ccc(Cl)cc2)cc1`, for which the TGI in assay [1] was above 100 µM; in assay [3], 57.5 µM; in assay [4], above 100 µM; in assay [5] it was above 100 µM; in [6], above 100 µM; in [10], above 100 µM. Also, the TGI in [7] was 93.6 µM; in [8], above 100 µM.
For the molecule `COC(=O)c1c(O)ccc2c1c1c(n2Cc2ccccc2OC)C(=O)c2ccccc2C1`, the TGI in assay [1] was above 100 µM; in assay [2], above 100 µM; in [3] it was 30 µM; in assay [4], above 100 µM; in assay [6], 87.9 µM; in assay [7], above 100 µM. The molecule further showed a TGI in [8] above 100 µM.
Regarding `COc1cc(/C=C2\N=C(C)N(n3c(-c4ccccc4)nc4ccccc4c3=O)C2=O)cc(OC)c1OC`, the TGI in assay [1], in assay [2], in assay [3], in assay [4], in assay [5] and in assay [10] was above 100 µM in each case. Besides, the TGI in assay [7] and in assay [8] was above 100 µM each time.
With `CCCCCCCC(=O)OCC(C[As](=O)(O)O)OC(=O)CCCCCCC` (stereo unspecified), the TGI turned out to be 37.5 µM in [2]; 27.6 µM in assay [3]; 81.9 µM in [4]; 30.6 µM in [5]; 34 µM in [6]; 25.4 µM in assay [9]. The TGI in [10] worked out at 31.7 µM; in [7], 27 µM.
In the case of `CCC/C(Cl)=N\OC(=O)Nc1ccc(F)c([N+](=O)[O-])c1`, the TGI in assay [2] is 55.7 µM; in assay [3], 12 µM; in [4], above 100 µM; in [5], above 100 µM; in assay [6], 28.9 µM; in assay [9], 31.7 µM. Moreover, the TGI in assay [10] worked out at 31.3 µM; in assay [7], 37.7 µM; in [8] it was 66.8 µM.
For the molecule `Cc1ccc(S(=O)(=O)C2c3nc4ccccc4cc3-c3nc4ccccc4nc32)cc1` (stereo unspecified), the TGI in [3], in assay [4], in [6], in [9], in assay [10] and in assay [7] was above 100 µM in each case. In [8], this molecule had a TGI above 100 µM.
`CC(O)c1cc2c(s1)C(=O)c1scc(C(C)O)c1C2=O` (stereo unspecified): the TGI in [2] was 4.03 µM; in assay [3], 3.66 µM; in assay [4], above 100 µM; in assay [5], 0.364 µM; in [6], 1.73 µM; in [9] it was 7.07 µM. The results for the TGI in assay [10], in [7] and in [8] were 3.46 µM, 0.587 µM and above 100 µM, respectively.
Consider `CC(C)=CCCC1(Sc2ccccc2)C(=O)OCC1C=C(C)C` (stereo unspecified), for which the TGI in assay [2] is 73.7 µM; in [3] it was 50 µM; in [5] it was above 100 µM; in assay [6], above 100 µM; in assay [10], above 100 µM; in assay [8], 30.1 µM.
